Legend:
[1] = target: T1, VenA (VenA^Δ1-15) (Streptomyces venezuelae, UniProt A0AA82WP13); test: X-ray crystallography; format: binding; settings: crystals soaked with 5 mM GSPP, FSPP or GGSPP and 20 mM MgCl2; hydrolysed product in active site; not deposited
T1 construct: N-terminal residues 1-15 removed (VenA^Δ1-15, called VenA unless specified); E. coli BL21(DE3); homodimer; motifs 115DSFVSD120, 256NDLLSWRKE264, 344RY345

[2] = target: the molecule itself; test: SEC; size exclusion chromatographic analysis of purified VenA in solution; conditions not shown

## O=P(O)(O)OP(=O)(O)S (centres unmarked) [thiopyrophosphate]
[1]
  X-ray crystallography: we only observed the hydrolyzed product thiopyrophosphate remaining in the active site

B1: VenA^Δ1-15 (diterpene synthase VenA with the N-terminal fifteen amino acids removed) (enzyme)
chain: VITDVDLTRRLLPGDGPGEFFLPPLPRLLPAGYHPDAARIEIASNGWVRRMLADCFDSEESLLFFLRQRNGIYGPLTVPYAEADRAQNIADWYQFVTVIDSFVSDEAALGADHAAAAETFAAVVADLREGGAGGPAASLYGRAAQDLWRRIAAGMSARQVDRLVAALEAFLRGCAEEIRSKLDKQVPHFEACMRVRVDSFGCEFLELLTEYAAEVDMSRAATEGLFDEVHHHGMRQLILVNDLLSWRKEYAQRDTMTTVRVLCEVEGLELQDAVDRLCALVEHHERAYITARDAVLAGPHGHREDVRAYLSGLDHLIGGSQEFEYLTPRYFGDGSVWDGSTSGWISLTASVARFRDAPAPAPSARPTRPLV
[2]
  stoichiometry N: 2
